Data from US9415031B2, “D-serine transporter inhibitors as pharmaceutical compositions for the treatment of visual system disorders” (Allergan, Inc., priority 2011, dated 2016).
“Also recorded” adds a separate entry of the source. Each block holds one compound with its values, some of them ahead of it.

What was measured:
human ASCT2 = target: T1, human ASCT2 (Homo sapiens, UniProt Q15758); assay: transport into HEK cells expressing ASCT2; type: cell-based
T1 construct: expressed in transfected cells; host or cells: HEK (human embryonic kidney) cells
T1 sequence (Q15758 1-541): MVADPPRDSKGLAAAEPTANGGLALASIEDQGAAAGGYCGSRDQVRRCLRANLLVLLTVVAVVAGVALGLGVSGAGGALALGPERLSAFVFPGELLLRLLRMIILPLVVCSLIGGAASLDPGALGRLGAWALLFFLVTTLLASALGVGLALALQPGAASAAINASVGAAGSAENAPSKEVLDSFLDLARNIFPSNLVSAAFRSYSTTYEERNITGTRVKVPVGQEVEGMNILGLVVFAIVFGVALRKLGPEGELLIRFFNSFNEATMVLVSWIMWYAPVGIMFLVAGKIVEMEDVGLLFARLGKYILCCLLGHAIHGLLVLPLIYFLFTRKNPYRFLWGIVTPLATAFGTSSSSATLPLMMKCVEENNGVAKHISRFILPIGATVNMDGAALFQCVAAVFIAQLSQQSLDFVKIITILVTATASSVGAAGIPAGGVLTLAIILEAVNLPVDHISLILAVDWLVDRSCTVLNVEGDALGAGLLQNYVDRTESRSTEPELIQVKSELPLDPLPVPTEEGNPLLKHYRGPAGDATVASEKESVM
Procedure: (§1) Cell-based assays: the transport of [^3H]L- or D-serine was measured in primary cultures of rat hippocampal astrocytes or in human embryonic kidney (HEK) cells expressing ASCT transporter sub-types. For the astrocyte assays, cells were plated on either 24- or 96-well plates at a density of 50,000 cells per well. For the HEK assays, cells were plated on coated 96-well plates at a density of 80,000 cells/well. Assays were conducted in duplicate at room temperature in assay buffer consisting of: NaCl: 150 mM, KCl: 2 mM; MgCl2: 1 mM; CaCl2: 1 mM; HEPES: Tris buffer: 10 mM, pH7.4. To assess the sodium-dependence of transport, NaCl was replaced in the assay buffer by equimolar choline chloride. Following aspiration of growth medium and 2 washes with assay buffer, cells were incubated with [^3H]L- or D-serine at a final concentration of 1 μM for 5 min (astrocytes) or 1 min (HEK cells), after which the incubation medium was aspirated and the cells washed twice with ice-cold assay buffer. Cells containing radiolabel were solubilized in 100 μl of 1% Triton-X100 and an aliquot counted in a beta counter. IC50 values were determined over a range of at least 6 concentrations and derived from curve-fitting algorithms available in Graph Pad Prism 4.

astrocytes = assay: [3H]L-serine transport into astrocytes; type: cell-based, rat; details: FIG. 6B
Procedure: as §1

ASCT1 [1] = target: T2, ASCT1 (Homo sapiens, UniProt P43007); assay: transport into HEK cells expressing ASCT1; type: cell-based; parameters: expressed in transfected cells; host or cells: HEK (human embryonic kidney) cells; details: for selectivity towards ASCT1: inhibition of [3H]L-serine transport, HEK cells expressing ASCT1 vs ASCT2
T2 sequence (P43007 1-532): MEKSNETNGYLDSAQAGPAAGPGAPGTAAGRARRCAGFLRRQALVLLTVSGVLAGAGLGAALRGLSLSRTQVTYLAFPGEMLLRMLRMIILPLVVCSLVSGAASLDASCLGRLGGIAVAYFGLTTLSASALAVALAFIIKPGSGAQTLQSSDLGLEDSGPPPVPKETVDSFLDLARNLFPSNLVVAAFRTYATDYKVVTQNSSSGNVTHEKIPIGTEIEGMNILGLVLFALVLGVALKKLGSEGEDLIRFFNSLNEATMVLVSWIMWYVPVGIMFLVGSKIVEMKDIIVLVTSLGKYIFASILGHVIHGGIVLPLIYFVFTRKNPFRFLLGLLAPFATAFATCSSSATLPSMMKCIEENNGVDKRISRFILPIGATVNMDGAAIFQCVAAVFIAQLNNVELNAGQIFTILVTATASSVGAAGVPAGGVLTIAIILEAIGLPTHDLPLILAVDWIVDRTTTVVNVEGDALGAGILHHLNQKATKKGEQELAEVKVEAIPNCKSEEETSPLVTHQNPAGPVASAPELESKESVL
Procedure: as §1

[2] = tested on: rat hippocampal astrocytes; assay: [3H]D-serine transport into primary cultures of rat hippocampal astrocytes; type: cell-based; details: two-component inhibition curves, FIG. 4
Procedure: as §1

ASCT2 = details: literature range; cited from earlier work
ASCT1 [3] = target: T2, ASCT1; details: one literature report; cited from earlier work
normal rats = assay: sweep VEP visual acuity in normal rats; type: in vivo, rat; details: 0.03-1.6 cpd, vs saline
Description: Sweep visually evoked potential (sweep VEP, sVEP), which was first introduced by Regan in 1973, has become an important technique to measure visual function. It is an objective method that can be used to assess visual acuity (VA) and contrast sensitivity (CS) in infants, young children and people with special needs. It was adapted to measure VA and CS in animals.
(§2) The recording electrodes were permanently implanted into the right visual cortex of Long Evans rats at lambda and 4.5 mm lateral to the midline, to a depth of 800 microns (layer III/iV). A reference electrode was placed epidurally on the midline 1.2 mm anterior to bregma. All recordings were conducted in awake rats starting at least two weeks after recovery from surgery. During recording the rats were alert and restrained in a home-made restrainer. They were habituated 2-3 times pre-surgery and at least three more times during seven days post-surgery. PowerDiva software from Anthony Norcia (Smith Kettlewell Institute of Visual Sciences) was used for data acquisition and analysis. Similar recording was performed in rabbits (FIG. 11) except the screw electrodes were place on top of the skull.
(§3) Stimuli were presented on a CRT computer monitor and consist of full-field sine-wave gratings at 80% contrast, reversing at 6.25 Hz. VEPs were elicited by horizontally oriented gratings. The display was positioned 24 cm in front of the rat and centered at the vertical meridian. Mean luminance was held constant at 20 cd. For sVEP in normal rats (slides 76-79), one stimulus presentation (one trial) consists of a spatial frequency sweep decreasing from 1.6 to 0.03 cycles/degree in 15 linear steps. A total of 20 trials were collected. Visual acuity (VA) thresholds were estimated using PowerDiva software. For fixed frequency stimulus in optic nerve crushed (ONC) rats (slides 80-83), the spatial frequency was fixed at 0.2 or 0.5 cycles/degree. Each trial lasts for 15 s. A total of 5 trials were collected and the signal powers were calculated.

[4] = tested on: rats after blue-light treatment; assay: contrast sensitivity (sweep VEP) in blue-light treated rats; type: in vivo, rat
Procedure: as §2
One stimulus presentation (one trial) consists of a contrast sweep increasing from 2.5 to 70% in 15 log steps. A total of 20 to 30 trials were collected. Contrast thresholds (CT) were estimated using PowerDiva software. Contrast sensitivity (CS) is calculated as 1/CT.
Blue-light treatment damages photoreceptors in the retina, and has been proposed as a model of age related macular degeneration (ARMD; Wielgus et al., 2010).

[5] = tested on: NMDA receptor-mediated excitatory postsynaptic currents (EPSCNMDA); assay: electrophysiological recording of NMDA receptor-mediated EPSCs from rat hippocampal slices; type: cell-based
Procedure: […] thick hippocampal slices were prepared from […] rats using Leica VT1000S-microtome. Slices were perfused with ACSF containing: 121 mM NaCl, 2.5 mM KCl, 2.0 mM Mg2SO4, 2.0 CaCl2, 1 mM NaH2PO4, 26.2 NaHCO3, and 11 mM glucose, which was equilibrated with 5% CO2/95% O2. Experiments were performed in a recording chamber on the stage of an Olympus BX-61wi microscope with infrared DIC optics for visualizing whole-cell patch-clamp recordings. EPSPs were recorded from CA1 pyramidal neurons by stimulating the Schaffer collateral-commissural pathway using a bipolar tungsten electrode. The recording pipettes were filled with regular ICM containing: 120 mM Cs-gluconate, 5 mM NaCl, 10 mM KCl, 0.1 mM CaCl2, 1 mM EGTA, 2 mM MgCl2, 10 mM HEPES, 2 mM Na-ATP, 2 mM Na2-phosphocreatine, and 0.25 mM Na-GTP, pH 7.3 (290 mOsm).
To measure NMDA-mediated EPSCs, extracellular Mg2SO4 was lowered to 0.2 mM and 2 μM NBQX and 100 μM picrotoxin were added in the ACSF. 1 μM 7-CKY (7-chlorokynurenic acid) was added to improve the sensitivity of […] to D-serine.

[6] = tested on: long-term potentiation (LTP) in the primary visual cortex; assay: long-term potentiation (LTP) in primary visual cortex slices; type: cell-based; details: rat visual cortex slice
Procedure: Long Term Potentiation (LTP) in primary visual cortex has been used as a cellular model for visual cortex plasticity and has functional consequences on visual evoked responses. NMDA receptors play a critical role in visual cortex LTP induction.
Following decapitation of the rat, the brain was rapidly removed and immersed in ice-cold artificial cerebrospinal fluid (ACSF) containing 124 mM NaCl, 3 mM KCl, 1.25 mM KH2PO4, 3.4 mM CaCl2, 2.5 mM MgSO4, 26 mM NaHCO3, and 10 mM D-glucose. A block of visual cortex was created by removing the frontal ⅔ portion of the brain and the cerebellum. Coronal visual cortex slices of 375 μm were prepared from adult Sprague Dawley (SD) rats using a vibratome (VT 1000 S; Leica). The slices were maintained in an interface recording chamber perfused with preheated ACSF. Slices were continuously perfused with this solution at a rate of 1.00-1.50 ml/min while the surface of the slices was exposed to warm, humidified 95% O2/5% CO2 and maintained at 31±1° C. Visual cortex slices were allowed to recover for 1 hr before recording began. […] This was repeated 2 additional times with a 1 minute intertrain interval, and the level of LTP was recorded for at least 30 min. Changes in amplitude of the synaptic response were used to measure the extent of LTP because it was determined to be the more consistent parameter than the slope of the response. […]

ONC rat = assay: fixed-frequency VEP in optic nerve crush (ONC) rats; type: in vivo; details: 30 mg/kg, spatial frequency fixed at 0.2 cpd, vs saline
Procedure: as §2
as §3, with “Visual acuity (VA) thresholds were estimated using PowerDiva software. For fixed frequency stimulus in optic nerve crushed (ONC) rats (slides 80-83), the spatial frequency was fixed at 0.2 or 0.5 cycles/degree. Each trial lasts for 15 s.” left out

normal rabbits = assay: sweep VEP in normal rabbits; type: in vivo, rabbit; details: 30 mg/kg, 0.03-1.6 cpd, vs saline
Procedure: as §2
as §3, with “Visual acuity (VA) thresholds were estimated using PowerDiva software. For fixed frequency stimulus in optic nerve crushed (ONC) rats (slides 80-83), the spatial frequency was fixed at 0.2 or 0.5 cycles/degree. Each trial lasts for 15 s.” left out

- inhibition of [3H]L-serine transport (human ASCT2; ASCT2-expressing HEK cells, FIG. 6B): completely inhibited
- inhibition of [3H]L-serine transport (ASCT1 [1]; ASCT1-expressing HEK cells, FIG. 6B): completely inhibited
Compound: N[C@H](CO)C(=O)O [D-serine]
- inhibition of [3H]L-serine transport (astrocytes): completely inhibited
- transport of [3H]D-serine into ASCT1-expressing HEK cells (ASCT1 [1]; with and without extracellular sodium, FIG. 6A): transported into ASCT1-expressing HEK cells in a sodium-dependent manner

Compound: NC(=O)CC[C@H](N)C(=O)O [L-glutamine]
- proportion of D-serine transport represented by the component for which the compound showed higher affinity [2]: approximately 40%
- selectivity towards ASCT2 (human ASCT2; inhibition of [3H]L-serine transport, HEK cells expressing ASCT1 vs ASCT2): selectivity towards ASCT2; also recorded: selective for ASCT2
- reported affinity for ASCT2 (ASCT2): 23 to 70 µM

Compound: O=C(O)[C@@H]1C[C@@H](O)CN1 [L-t-4OHPro, L-trans-4-hydroxyproline]
- proportion of D-serine transport represented by the component for which the compound showed higher affinity [2]: approximately 60%
- reported affinity for ASCT1 (ASCT1 [3]): high affinity
- selectivity towards ASCT1 (ASCT1 [1]): selectivity towards ASCT1
- selectivity towards ASCT1 (ASCT1 [1]; listed as L-trans-4OHPro): selective for ASCT1

Compound: N[C@H](C(=O)O)c1ccc(F)cc1 [L-4FPG, L-4-fluorophenylglycine]
- visual function (visual acuity) assessed by sweep VEP (normal rats; 10 mg/kg, 40 min after injection, 10 mg/kg): enhance visual function
- visual function (visual acuity) assessed by sweep VEP (normal rats; 10 mg/kg, 40 min after injection, listed as L-FPG, 10 mg/kg): enhances visual function
- contrast sensitivity ([4]; rats fifty-three weeks after blue-light treatment, 10 mg/kg, 0.575 cpd, vs saline): improved the contrast sensitivity

- duration of the potentiation effect on EPSCNMDA ([5]; 1000 μM, then control buffer): lasted for one hour
Compound: N[C@H](C(=O)O)c1ccc(O)cc1 [L-4OHPG, L-4-hydroxyphenylglycine]
- percentage increase in the amplitude of EPSCNMDA ([5]; 1000 μM, in presence of 1 μM 7-CKY, representative experiment): 22%
- effect on NMDA receptor-mediated EPSCs ([5]; CA1 region of the hippocampus): dose-dependent effects; also recorded: potentiated
- effect on LTP evoked by theta burst stimulation [6]: dose-dependently facilitates; also recorded: enhanced LTP in a concentration-dependent manner
- effect on LTP with D-amino acid oxidase (D-AAO) in the perfusion medium ([6]; D-AAO): dependent on extracellular D-serine; also recorded: completely prevented
- visual function (visual acuity) assessed by sweep VEP (normal rats; 30 mg/kg, 30 min after injection, 30 mg/kg): enhance visual function
- visually-evoked signals (power of signals) from the visual cortex (ONC rat): visual enhancement effect; also recorded: enhances visually-evoked signals
- visual function assessed by sweep VEP (normal rabbits): enhances visual function; also recorded: enhanced sweep VEP
- contrast sensitivity ([4]; rats with damaged retinas following blue-light treatment, FIG. 12 as described in text): significant improvement in contrast sensitivity
